{
  "source": "ChEMBL document CHEMBL5360532",
  "about": "“Current scenario of quinolone hybrids with potential antibacterial activity against ESKAPE pathogens” (Eur J Med Chem, 2023)",
  "format_in_all_cases": "functional",
  "key": {"[1]": {"tested_on": "Mycobacterium tuberculosis", "test": "Antimycobacterial activity against multidrug Mycobacterium tuberculosis assessed as bacterial growth inhibition by LJ slant assay"}, "[2]": {"tested_on": "Mycobacterium tuberculosis", "test": "Antimycobacterial activity against extensive drug Mycobacterium tuberculosis assessed as bacterial growth inhibition by LJ slant assay"}, "[3]": {"tested_on": "Pseudomonas aeruginosa", "test": "Antibacterial activity against clinical isolate multi drug resistant Pseudomonas aeruginosa PA259-96918 assessed as bacterial growth inhibition measured after 18 hrs by broth microdilution assay"}, "[4]": {"tested_on": "Pseudomonas aeruginosa", "test": "Antibacterial activity against clinical isolate multi drug resistant Pseudomonas aeruginosa PA260-97103 assessed as bacterial growth inhibition measured after 18 hrs by broth microdilution assay"}, "[5]": {"tested_on": "Pseudomonas aeruginosa", "test": "Antibacterial activity against clinical isolate multi drug resistant Pseudomonas aeruginosa PA262-101856 assessed as bacterial growth inhibition measured after 18 hrs by broth microdilution assay"}, "[6]": {"tested_on": "Pseudomonas aeruginosa", "test": "Antibacterial activity against clinical isolate multi drug resistant Pseudomonas aeruginosa PA264-104354 assessed as bacterial growth inhibition measured after 18 hrs by broth microdilution assay"}, "[7]": {"tested_on": "Pseudomonas aeruginosa", "test": "Antibacterial activity against multi drug resistant Pseudomonas aeruginosa clinical isolate 100036 assessed as bacterial growth inhibition measured after 18 hrs by broth microdilution assay"}, "[8]": {"tested_on": "Acinetobacter baumannii", "test": "Antibacterial activity against clinical isolate multi drug resistant Acinetobacter baumannii AB027 assessed as bacterial growth inhibition measured after 18 hrs by broth microdilution assay"}, "[9]": {"tested_on": "Acinetobacter baumannii", "test": "Antibacterial activity against clinical isolate multi drug resistant Acinetobacter baumannii AB031 assessed as bacterial growth inhibition measured after 18 hrs by broth microdilution assay"}, "[10]": {"tested_on": "Acinetobacter baumannii", "test": "Antibacterial activity against multi drug resistant Acinetobacter baumannii clinical isolate 92247 assessed as bacterial growth inhibition measured after 18 hrs by broth microdilution assay"}, "[11]": {"tested_on": "Acinetobacter baumannii", "test": "Antibacterial activity against clinical isolate multi drug resistant Acinetobacter baumannii LAC-4 assessed as bacterial growth inhibition measured after 18 hrs by broth microdilution assay"}, "[12]": {"tested_on": "Escherichia coli", "test": "Antibacterial activity against multi drug resistant Escherichia coli clinical isolate 94393 assessed as bacterial growth inhibition measured after 18 hrs by broth microdilution assay"}, "[13]": {"tested_on": "Escherichia coli", "test": "Antibacterial activity against multi drug resistant Escherichia coli clinical isolate 94474 assessed as bacterial growth inhibition measured after 18 hrs by broth microdilution assay"}, "[14]": {"tested_on": "Escherichia coli", "test": "Antibacterial activity against multi drug resistant Escherichia coli clinical isolate 107115 assessed as bacterial growth inhibition measured after 18 hrs by broth microdilution assay"}, "[15]": {"tested_on": "Klebsiella pneumoniae", "test": "Antibacterial activity against multi drug resistant Klebsiella pneumoniae clinical isolate 113250 assessed as bacterial growth inhibition measured after 18 hrs by broth microdilution assay"}, "[16]": {"tested_on": "Klebsiella pneumoniae", "test": "Antibacterial activity against multi drug resistant Klebsiella pneumoniae clinical isolate 113254 assessed as bacterial growth inhibition measured after 18 hrs by broth microdilution assay"}, "[17]": {"tested_on": "Klebsiella pneumoniae", "test": "Antibacterial activity against multi drug resistant Klebsiella pneumoniae clinical isolate 116381 assessed as bacterial growth inhibition measured after 18 hrs by broth microdilution assay"}, "[18]": {"tested_on": "Enterobacter cloacae", "test": "Antibacterial activity against multi drug resistant Enterobacter cloacae clinical isolate 117029 assessed as bacterial growth inhibition measured after 18 hrs by broth microdilution assay"}, "[19]": {"tested_on": "Enterobacter cloacae", "test": "Antibacterial activity against multi drug resistant Enterobacter cloacae clinical isolate 118564 assessed as bacterial growth inhibition measured after 18 hrs by broth microdilution assay"}, "[20]": {"tested_on": "Enterobacter cloacae", "test": "Antibacterial activity against multi drug resistant Enterobacter cloacae clinical isolate 121187 assessed as bacterial growth inhibition measured after 18 hrs by broth microdilution assay"}, "[21]": {"tested_on": "Escherichia coli", "test": "Antibacterial activity Escherichia coli assessed as bacterial growth inhibition measured after 24 hrs by broth microdilution assay"}, "[22]": {"tested_on": "Pseudomonas aeruginosa", "test": "Antibacterial activity Pseudomonas aeruginosa assessed as bacterial growth inhibition measured after 24 hrs by broth microdilution assay"}, "[23]": {"tested_on": "Staphylococcus aureus", "test": "Antibacterial activity Staphylococcus aureus assessed as bacterial growth inhibition measured after 24 hrs by broth microdilution assay"}, "[24]": {"tested_on": "Enterococcus faecalis", "test": "Antibacterial activity Enterococcus faecalis assessed as bacterial growth inhibition measured after 24 hrs by broth microdilution assay"}, "[25]": {"tested_on": "Staphylococcus aureus", "test": "Antibacterial activity against methicillin resistant Staphylococcus aureus assessed as bacterial growth inhibition by two fold serial dilution assay"}, "[26]": {"tested_on": "Pseudomonas aeruginosa", "test": "Antibacterial activity against Pseudomonas aeruginosa assessed as bacterial growth inhibition by two fold serial dilution assay"}, "[27]": {"tested_on": "Escherichia coli", "test": "Antibacterial activity Escherichia coli ATCC 25922 assessed as bacterial growth inhibition by broth microdilution assay"}, "[28]": {"tested_on": "Staphylococcus aureus", "test": "Antibacterial activity Staphylococcus aureus ATCC 25923 assessed as bacterial growth inhibition by broth microdilution assay"}},
  "data": [
    {"smiles": "NC[C@@H]1O[C@@H](O[C@@H]2[C@@H](OCCCCCCCN3CCN(c4cc5c(cc4F)c(=O)c(C(=O)O)cn5C4CC4)CC3)[C@H](O[C@@H]3O[C@@H](CO)[C@H](O)[C@@H](N)[C@@H]3O)[C@@H](N)C[C@H]2N)[C@@H](N)C[C@H]1O", "values": [
      {"measurement": "MIC", "setting": "[1]", "value": "≥ 16", "unit": "µg/mL"},
      {"measurement": "MIC", "setting": "[2]", "value": "≥ 16", "unit": "µg/mL"},
      {"measurement": "MIC", "setting": "[3]", "value": "≥ 16", "unit": "µg/mL"},
      {"measurement": "MIC", "setting": "[4]", "value": "≥ 16", "unit": "µg/mL"},
      {"measurement": "MIC", "setting": "[5]", "value": "≥ 16", "unit": "µg/mL"},
      {"measurement": "MIC", "setting": "[6]", "value": "≥ 16", "unit": "µg/mL"},
      {"measurement": "MIC", "setting": "[7]", "value": "≥ 16", "unit": "µg/mL"},
      {"measurement": "MIC", "setting": "[8]", "value": "≥ 16", "unit": "µg/mL"},
      {"measurement": "MIC", "setting": "[9]", "value": "≥ 16", "unit": "µg/mL"},
      {"measurement": "MIC", "setting": "[10]", "value": "≥ 16", "unit": "µg/mL"},
      {"measurement": "MIC", "setting": "[11]", "value": "≥ 16", "unit": "µg/mL"},
      {"measurement": "MIC", "setting": "[12]", "value": "≥ 16", "unit": "µg/mL"},
      {"measurement": "MIC", "setting": "[13]", "value": "≥ 16", "unit": "µg/mL"},
      {"measurement": "MIC", "setting": "[14]", "value": "≥ 16", "unit": "µg/mL"},
      {"measurement": "MIC", "setting": "[15]", "value": "≥ 16", "unit": "µg/mL"},
      {"measurement": "MIC", "setting": "[16]", "value": "≥ 16", "unit": "µg/mL"},
      {"measurement": "MIC", "setting": "[17]", "value": "≥ 16", "unit": "µg/mL"},
      {"measurement": "MIC", "setting": "[18]", "value": "≥ 16", "unit": "µg/mL"},
      {"measurement": "MIC", "setting": "[19]", "value": "≥ 16", "unit": "µg/mL"},
      {"measurement": "MIC", "setting": "[20]", "value": "≥ 16", "unit": "µg/mL"}
    ]},
    {"smiles": "C[C@H](NC(=O)c1cc(=O)[nH]c2ccccc12)C(=O)O", "values": [
      {"measurement": "MIC", "setting": "[21]", "value": 620, "unit": "µg/mL"},
      {"measurement": "MIC", "setting": "[22]", "value": 620, "unit": "µg/mL"},
      {"measurement": "MIC", "setting": "[23]", "value": 620, "unit": "µg/mL"},
      {"measurement": "MIC", "setting": "[24]", "value": 620, "unit": "µg/mL"}
    ]},
    {"smiles": "COc1c(N2CCN(C(=O)CN3CCN(CC(=O)O)CCN(CC(=O)O)CCN(CC(=O)O)CC3)C(C)C2)c(F)cc2c(=O)c(C(=O)O)cn(C3CC3)c12", "note": "(stereo not drawn)", "values": [
      {"measurement": "MIC", "setting": "[25]", "value": 1.56, "unit": "µg/mL"},
      {"measurement": "MIC", "setting": "[26]", "value": 3.12, "unit": "µg/mL"}
    ]},
    {"smiles": "C[C@@H](NC(=O)C(Cl)Cl)C(=O)N1CCN(c2cc3c(cc2F)c(=O)c(C(=O)O)cn3C2CC2)CC1", "values": [
      {"measurement": "MIC", "setting": "[27]", "value": 0.082, "unit": "µg/mL"},
      {"measurement": "MIC", "setting": "[28]", "value": 0.167, "unit": "µg/mL"}
    ]}
  ]
}
